What was measured:
5-LO [1] = biological target: T1, 5-LO (Homo sapiens, UniProt P09917); assay: 5-LO product formation in intact human neutrophils stimulated with A23187 (cell-based); parameters: 5-LO product formation in intact human neutrophils; endogenous in cells; host or cells: freshly isolated human peripheral blood neutrophils; conditions: for IC50: human neutrophils stimulated with A23187; for remaining activity at 10 µM / 5-LO Activity [% Control] cell-based: residual activity at 10 µM, A23187, mean ± SEM, 3–4 experiments; for remaining activity at 10 µM: read-out: 5-LO Activity [% Control] cell-based
T1 sequence (P09917 1-674): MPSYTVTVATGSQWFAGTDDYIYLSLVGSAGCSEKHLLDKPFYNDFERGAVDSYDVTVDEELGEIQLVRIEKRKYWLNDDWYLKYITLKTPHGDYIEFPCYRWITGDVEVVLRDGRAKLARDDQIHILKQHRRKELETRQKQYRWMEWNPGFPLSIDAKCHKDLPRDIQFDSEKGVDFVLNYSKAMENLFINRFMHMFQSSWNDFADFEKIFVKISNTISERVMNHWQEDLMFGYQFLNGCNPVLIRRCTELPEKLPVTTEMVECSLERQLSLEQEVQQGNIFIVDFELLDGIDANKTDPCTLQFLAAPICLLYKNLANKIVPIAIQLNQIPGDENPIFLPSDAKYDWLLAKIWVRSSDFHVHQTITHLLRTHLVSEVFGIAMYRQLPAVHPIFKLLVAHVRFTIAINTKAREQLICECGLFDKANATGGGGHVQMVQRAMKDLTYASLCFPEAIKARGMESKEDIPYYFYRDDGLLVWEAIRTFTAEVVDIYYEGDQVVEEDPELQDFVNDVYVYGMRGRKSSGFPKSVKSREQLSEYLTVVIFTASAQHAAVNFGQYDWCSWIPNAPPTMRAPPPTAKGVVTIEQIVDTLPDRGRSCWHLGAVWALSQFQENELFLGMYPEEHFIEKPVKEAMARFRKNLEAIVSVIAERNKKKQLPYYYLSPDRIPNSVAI
Description: Neutrophils were isolated from peripheral blood (University Hospital Tübingen, Germany), collected from fasted healthy adult donors that were informed about the aim of the study and gave written consent. Leukocyte concentrates were obtained by centrifugation (4000× g, 20 min, 20 °C) of heparinized blood preparation, and neutrophils were immediately isolated as described before. Briefly, leukocyte concentrates were subjected to dextran sedimentation and centrifuged on lymphocyte separation medium (LSM 1077, PAA, Coelbe, Germany). For isolation of pelleted neutrophils, remaining erythrocytes were removed by hypotonic lysis, washed twice with ice-cold phosphate-buffered saline (PBS) and finally resuspended in PBS buffer containing 0.1% glucose and CaCl2 (1 mM) (PGC buffer).
5-LO product formation in intact human neutrophils was performed using 5 × 10^6 freshly isolated cells that were resuspended in 1 mL PGC buffer. Cells were pre-incubated with the test compounds or vehicle (0.1% DMSO) at 37 °C for 15 min prior to stimulation with 2.5 µM Ca^2+-ionophore A23187 for 10 min (37 °C). 5-LO product formation was stopped by addition of one volume of ice-cold methanol, samples were subjected to solid phase extraction after addition of 200 ng PGB1 as internal standard, and 5-LO products (LTB4, its trans-isomers and 5-HETE) were analyzed by RP-HPLC as described above.

5-LO [2] = biological target: T1, 5-LO; assay: 5-LO activity in a cell-free assay (isolated human recombinant 5-LO, 20 µM arachidonic acid); assay type: biochemical; parameters: made in house; host or cells: Escherichia coli BL21 (pT3-5-LO plasmid); conditions: for IC50: isolated human 5-LO; for IC50 / remaining activity at 10 µM / 5-LO Activity [% Control] cell-free: 20 µM arachidonic acid; for remaining activity at 10 µM / 5-LO Activity [% Control] cell-free: residual activity at 10 µM, isolated 5-LO, mean ± SEM, 3–4 experiments; for remaining activity at 10 µM: read-out: 5-LO Activity [% Control] cell-free; for inhibition at 10 µM / inhibition of 5-LO activity, cell-free: at 10 µM
Description: Human recombinant 5-LO was expressed in Eschericha coli BL21 transformed with pT3-5-LO plasmid at 30 °C overnight, as described elsewhere. Cells were lysed in lysis buffer containing triethanolamine (50 mM, pH 8.0), EDTA (5 mM), phenylmethanesulfonyl fluoride (1 mM), soybean trypsin inhibitor (60 µg/mL), dithiothreitol (2 mM), and lysozyme (1 mg/mL), and homogenized by sonification (3 × 15 s). 5-LO was then purified from 40,000× g supernatant (20 min, 4 °C) using an ATP-agarose column (Sigma-Aldrich, Deisenhofen, Germany), diluted with PBS buffer containing 1 mM EDTA, and immediately used for 5-LO activity assays.
To determine 5-LO activity, aliquots of purified 5-LO (0.5 µg 5-LO in 1 mL PBS plus 1 mM EDTA) were pre-incubated with the test compounds or vehicle (0.1% dimethyl sulfoxide, DMSO) on ice for 15 min, pre-warmed for 30 s at 37 °C in a water bath, and then stimulated with 20 µM AA and CaCl2 2 mM for 10 min at 37 °C. The reaction was stopped with one volume of ice-cold methanol and 5-LO products (including all-trans-isomers of LTB4 and 5-hydroperoxyeicosatetraenoic acid (5-HpETE), as well as its corresponding alcohol 5-hydroxyeicosatetraenoic acid (5-HETE)) were analyzed by reversed phase (RP)-HPLC (Elite LaChrom, VWR, Radnor, PA, USA) as previously described. In brief, acidified PBS and 200 ng of internal PGB1 standard were added and solid phase extraction using C18 RP-columns (100 mg, UCT, Bristol, PA, USA) was performed. After elution with methanol, samples were analyzed by RP-HPLC using a C-18 Radial-PAK column (Waters, Eschborn, Germany).

cathepsin G = biological target: T2, cathepsin G (Homo sapiens, UniProt P08311); assay: Cathepsin G activity in a cell-free assay (Suc-AAPF-pNA substrate); assay type: biochemical; conditions: for Cat. G IC50 / IC50 / remaining activity at 10 µM: cell-free; for Cat. G IC50 / IC50: purified cathepsin G from human neutrophils; for IC50: read-out: Cat. G IC50 (converted); for remaining activity at 10 µM: residual activity at 10 µM, mean ± SEM, 3–4 experiments, read-out: Cat. G Activity [% Control]
T2 construct: purified cathepsin G (0.2 µg) from human neutrophils; purchased Calbiochem; host or cells: human neutrophils (natural source)
T2 sequence (P08311 21-244 limits assumed): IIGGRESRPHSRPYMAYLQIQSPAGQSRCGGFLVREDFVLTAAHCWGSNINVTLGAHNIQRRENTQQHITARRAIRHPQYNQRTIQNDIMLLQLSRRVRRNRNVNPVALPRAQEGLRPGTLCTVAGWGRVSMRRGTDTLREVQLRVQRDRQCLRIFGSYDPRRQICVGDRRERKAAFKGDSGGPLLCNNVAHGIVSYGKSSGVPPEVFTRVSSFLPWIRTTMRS
Description: Commercially available purified cathepsin G (0.2 µg) from human neutrophils (Calbiochem, La Jolla, CA, USA) was mixed with test compounds or DMSO (vehicle control) in 200 µL 0.1 M HEPES pH 7.4, 0.5 M NaCl, and 10% DMSO in a 96-well plate (Greiner Bio-One, Frickenhausen, Germany) and pre-incubated for 20 min at 25 °C. Then, N-Suc–Ala–Ala–Pro–Phe–pNA (Suc–AAPF–pNA) (1 mM) as substrate for cathespin G was added, and the absorbance was measured at 410 nm at 25 °C using a Victor^2 plate reader (PerkinElmer, Waltham, MA, USA).

## CC(=O)O[C@@H]1CC[C@@]2(C)[C@@H](CC[C@]3(C)[C@@H]2C(=O)C=C2[C@@H]4[C@@H](C)[C@H](C)CC[C@]4(C)CC[C@]23C)[C@@]1(C)C(=O)O [compound 1, 3-O-acteyl-11-keto-β-BA]
5-LO [1]
  IC50: 3 µM
5-LO [1]; human neutrophils
  remaining activity at 10 µM: 23.1 ± 9.8%
5-LO [2]
  IC50: 3 µM
  remaining activity at 10 µM: 40.7 ± 10.8%
Cathepsin G
  Cat. G IC50: submicromolar
  IC50: 0.6 µM
  remaining activity at 10 µM: 14.8 ± 0.9%

## C[C@H]1[C@H](C)CC[C@]2(C)CC[C@]3(C)C(=CC(=O)[C@@H]4[C@@]5(C)CC[C@@H](O)[C@](C)(C(=O)O)[C@@H]5CC[C@]43C)[C@H]12 [compound 2, 11-keto-β-BA]
5-LO [1]
  IC50: 3.5 µM
5-LO [1]; human neutrophils
  remaining activity at 10 µM: 25.7 ± 7.3%
5-LO [2]
  IC50: 4.6 µM
  remaining activity at 10 µM: 31.1 ± 5%
Cathepsin G
  IC50: 4.1 µM
  remaining activity at 10 µM: 29.4 ± 3.5%

## C[C@H]1[C@H](C)CC[C@]2(C)CC[C@]3(C)C(=CC[C@@H]4[C@@]5(C)CC[C@@H](O)[C@](C)(C(=O)O)[C@@H]5CC[C@]43C)[C@H]12 [compound 3, β-BA]
5-LO [1]; at 10 µM, human neutrophils, read-out: inhibition of 5-LO activity in intact cells
  inhibition at 10 µM: 47%
5-LO [1]; human neutrophils
  remaining activity at 10 µM: 53 ± 7.6%
5-LO [2]
  inhibition at 10 µM: 21 to 26%
  remaining activity at 10 µM: 78.7 ± 12.6%
Cathepsin G
  Cat. G IC50: submicromolar
  IC50: 0.5 µM
  remaining activity at 10 µM: 27.7 ± 1.8%

## CC(=O)O[C@@H]1CC[C@@]2(C)[C@@H](CC[C@]3(C)[C@@H]2CC=C2[C@@H]4[C@@H](C)[C@H](C)CC[C@]4(C)CC[C@]23C)[C@@]1(C)C(=O)O [compound 4, 3-O-acteyl-β-BA]
5-LO [1]; human neutrophils
  5-LO Activity [% Control] cell-based: n.i.
5-LO [2]
  inhibition at 10 µM: 21 to 26%
  remaining activity at 10 µM: 73.5 ± 13.3%
Cathepsin G
  IC50: 2 µM
  remaining activity at 10 µM: 28.1 ± 4.9%

## C=C(C)[C@@H]1CC[C@]2(C)[C@H](CC=C3[C@@H]4[C@@H](C)[C@H](C)CC[C@]4(C)CC[C@]32C)[C@@]1(C)CCC(=O)O [compound 5]
5-LO [1]; at 10 µM, human neutrophils
  inhibition of 5-LO activity in intact cells: hardly active
5-LO [1]; human neutrophils
  remaining activity at 10 µM: 74.5 ± 3.7%
5-LO [2]
  inhibition of 5-LO activity, cell-free: failed in this respect
  5-LO Activity [% Control] cell-free: n.i.
Cathepsin G
  remaining activity at 10 µM: 69.8 ± 8%

## CC(C)[C@@H]1CC[C@]2(C)[C@H](CC=C3[C@@H]4[C@@H](C)[C@H](C)CC[C@]4(C)CC[C@]32C)[C@@]1(C)CCC(=O)O [compound 6]
5-LO [1]; at 10 µM, human neutrophils
  inhibition of 5-LO activity in intact cells: hardly active
5-LO [1]; human neutrophils
  5-LO Activity [% Control] cell-based: n.i.
5-LO [2]
  inhibition of 5-LO activity, cell-free: failed in this respect
  5-LO Activity [% Control] cell-free: n.i.
Cathepsin G
  remaining activity at 10 µM: 70.4 ± 3.9%

## CC(C)[C@@H]1CC[C@]2(C)[C@H](C(=O)C=C3[C@@H]4[C@@H](C)[C@H](C)CC[C@]4(C)CC[C@]32C)[C@@]1(C)CCC(=O)O [compound 7]
5-LO [1]
  IC50: 4.3 µM
5-LO [1]; human neutrophils
  remaining activity at 10 µM: 7.1 ± 3.3%
5-LO [2]
  inhibition at 10 µM: 27%
  remaining activity at 10 µM: 73 ± 8.1%
Cathepsin G
  remaining activity at 10 µM: 53.8 ± 8.1%

## C=C(C)[C@@H]1CC[C@]2(C)CC[C@]3(C)[C@H](CC[C@@H]4[C@@]5(C)CC[C@@H](O)[C@](C)(C(=O)O)[C@@H]5CC[C@]43C)[C@@H]12 [compound 9]
5-LO [1]
  IC50: 4 µM
5-LO [1]; human neutrophils
  remaining activity at 10 µM: 36.2 ± 5.1%
5-LO [2]
  inhibition of 5-LO activity, cell-free: did not markedly inhibit 5-LO
  remaining activity at 10 µM: 76.6 ± 12.2%
Cathepsin G; at 10 µM
  inhibition at 10 µM: 27 to 44%
Cathepsin G
  remaining activity at 10 µM: 58.1 ± 3.6%

## C=C(C)[C@@H]1CC[C@]2(C)CC[C@]3(C)[C@H](CC[C@@H]4[C@@]5(C)CC[C@@H](OC(C)=O)[C@](C)(C(=O)O)[C@@H]5CC[C@]43C)[C@@H]12 [compound 10]
5-LO [1]; human neutrophils
  remaining activity at 10 µM: 88.7 ± 6.7%
5-LO [2]
  inhibition of 5-LO activity, cell-free: did not markedly inhibit 5-LO
  5-LO Activity [% Control] cell-free: n.i.
Cathepsin G; at 10 µM
  inhibition at 10 µM: > 50%
Cathepsin G
  IC50: 7.5 µM
  remaining activity at 10 µM: 35.9 ± 2.5%

## C=C(C)[C@@H]1CC[C@]2(CO)CC[C@]3(C)[C@H](CC[C@@H]4[C@@]5(C)CC[C@@H](O)[C@](C)(C(=O)O)[C@@H]5CC[C@]43C)[C@@H]12 [compound 11]
5-LO [1]
  IC50: 4.6 µM
5-LO [1]; human neutrophils
  remaining activity at 10 µM: 24 ± 7.2%
5-LO [2]
  IC50: 10 µM
  remaining activity at 10 µM: 52.7 ± 7.1%
Cathepsin G; at 10 µM
  inhibition at 10 µM: 27 to 44%
Cathepsin G
  remaining activity at 10 µM: 68.1 ± 6.5%

## C=C(C)[C@@H]1CC[C@]2(CO)CC[C@]3(C)[C@H](CC[C@@H]4[C@@]5(C)CC[C@@H](OC(C)=O)[C@](C)(C(=O)O)[C@@H]5CC[C@]43C)[C@@H]12 [compound 12]
5-LO [1]
  IC50: 5.1 µM
5-LO [1]; human neutrophils
  remaining activity at 10 µM: 28.4 ± 11.1%
5-LO [2]
  IC50: 8.3 µM
  remaining activity at 10 µM: 41.8 ± 3.4%
Cathepsin G; at 10 µM
  inhibition of cathepsin G: failed to markedly inhibit cathepsin G
Cathepsin G
  remaining activity at 10 µM: 87.2 ± 2.5%
